Reference: patent publication US5182276A, “Nootropic agent” (Santen Pharmaceutical Co., Ltd., priority 1989, dated 1993)
Structures can show the parent of a compound that is named as a salt.

Key:
[1] = Test of Hypoxia-Inhibiting Effect (survival time under nitrogen gas); format: in vivo, ICR mice; conditions: 100 mg/kg oral
Procedure: In this test, groups (9 to 10 mice each) of ICR mice were employed. The compound to be tested was suspended in a 0.5% aqueous methyl cellulose solution and was orally administered. 60 Minutes after the administration,each mouse was placed in a transparent container (volume 500m μ) having an exhaust hole and N, gas was supplied to the container at a rate of 5μ/min. The time (survival time in sec.) ,elapsed from the initiation of the nitrogen gas supply until the cessation of breathing of each mouse was determined. As the compounds to be tested, there was used (+)-3,4-dihydro-2-(5-methoxy-2- (3-(N-methyl-N-[2-[(3,4]propoxy]phenyl]-4-methyl-3-oxo-2H-1,4-benzothiazine fumarate (hereinafter referred to as "Compound A") which is a representative compound of the present invention. The results obtained are listed in the following Table 1.

[2] = test system: cerebral ischemia / energy metabolic substances in the brain; experiment: Test of Cerebral Energy Metabolism (bilateral common carotid artery ligation, SHR); format: in vivo, male SHR's (rat); conditions: for Hippocampus E.C. (energy charge): **: P < 0.01 vs. Pathema Control (0.628 ± 0.026); for Cerebral Cortex E.C. (energy charge): **: P < 0.01 vs. Pathema Control (0.631 ± 0.0243); for Striatum E.C. (energy charge): **: P < 0.01 vs. Pathema Control (0.679 ± 0.032)
Procedure: 24-Week-old male SHR's were fixed on the back thereof under with 1.5% halothane anesthetic (70% N,O, 30% O2) and the neck thereof was subjected to a median incision. The cerebral ischemia was caused by immediately ligating bilateral common carotid artery with a silk fiber just before the recovery from the anesthetic state. 3.5 Hours after the ligation, the animals were sacrificed by irradiating them with microwaves (5 KW, 1.5 second). The brain tissues were collected and divided into cerebral cortex, hippocampus and striatum. The brain tissues were homogenized in a 0.6N aqueous perchloric acid solution and centrifuged at 3,000 rpm for 20 minutes. The resulting supernatant was used as the sample for detecting the energy metabolic substances. In the measurement, ATP-Uv test (available from Sigma Co., Ltd.) was used as ATP and lactate-UV test (available from Boeringer Mannheim Yamanouchi Co., Ltd.) was used as lactate. The detection of ADP and AMP was performed according to the method of Bergmeyer (Klin. Chem. Klin. Biochem., 1975, 13, p. 507). The energy charge (hereinafter referred to as "E.C.") which served as an indication of the degree of energy sufficiency due to high energy phosphoric acid of adenine nucleotide was calculated from the following relation according to the method of Atkinson (J. Biol. Chem., 1967, 242, p. 3329):
E.C.=(ATP+1/2ADP)/(ATP+ADP+AMP)
In the test, the compound to be tested was suspended in a 0.5% aqueous solution of methyl cellulose and was administered, through an oral route, to the animals to be tested 30 minutes before the ligation of the both common carotid arteries.

[3] = Water Maze-Learning Test after cerebral ischemia; format: in vivo, male SHR's (rat); conditions: for Swimming Time, 3rd Session: **: P < 0.01 vs. Pathema Control (114.9 ± 16.93); for Swimming Time, 2nd Session: **: P < 0.01 vs. Pathema Control (130.0 ± 17.13); for Swimming Time, 1st Session: **: P < 0.01 vs. Pathema Control (167.5 ± 9.59)
Procedure: (§1) 25-Week-old male SHR's were fixed on the back thereof under anesthetization with 1.5% halothane anesthetic (70% N,O, 30% O2) and the neck thereof was subjected to a median incision. The cerebral ischemia was caused by immediately ligating the both common carotid arteries with,a silk fiber after a vinyl tube was attached to the artery and just before the recovery from the anesthetic state. 3.5 Hours after the ligation, the silk fiber was cut to again initiate the blood circulation. In the test, the compound to be tested was suspended in a 0.5% aqueous solution of methyl cellulose and was initially administered, through oral route, to the animals to be tested 30 minutes before the ligation of the common artery and thereafter it was continuously administered every day over 16 days through oral route provided that the compound was not administered during the behavioral pharmacologic tests of the animals and was administered after completion of the tests.
This water maze-learning test was initiated on 7th day after the cerebral ischemia condition was formed. A cylindrical water tank having a diameter of 1.2 m was filled with black water and the temperature thereof was maintained at 20±1° C. A platform which was submerged in the water to a depth of 2 cm and could not be externally seen through the water (hereinafter referred to as "platform") was placed at the central point existing between the center of the water tank and the wall thereof.
The water maze-learning test was performed once a day (one session) which was continuously performed over three days (three sessions). In the first session (1st day), the animal was allowed to freely swim in the water tank which was free of platforms, then a platform was positioned in the tank and the animal was allowed to learn the presence of the platform of refuge by placing the animal thereon for 30 seconds. The animal was released through four predetermined points on the wall of the water tank over four times and the total time (swimming time (sec)) required until the animal got on the platform over four trials was determined. After the four trials, the animal was again allowed to stand on the platform for […] and thus the first session was completed. In this respect, the maximum total time required over four trials was determined to be 180 seconds. […] The 2nd and 3rd sessions were performed under the same conditions used in the first session except that the test animal was not allowed to freely swim in the water tank prior to the initiation of the test. The spatial positions of the water tank and the platform in the laboratory were not changed at all during the water maze-learning test term.

[4] = Trial Passive Avoidance Training after cerebral ischemia; format: in vivo, male SHR's (rat); conditions: for Reaction Latency: cut-off 300 s, **: P < 0.01 vs. Pathema Control (146.7 ± 30.42)
Procedure: as §1
As a testing apparatus, there was used a training box comprising a bright room whose floor was formed from grid, a dark room capable of applying footshock through the floor made of grid and a port opening equipped with a guillotine door disposed at the boundary of these rooms through which the animal could freely move between these two rooms. First, as an acquired trial, the rat was put in the bright room for 30 seconds while the guillotine door was closed, then the guillotine door was opened and the time required for the rat to enter into the dark room through the guillotine door was determined. […] After 24 hours, the rat was again put in the bright room, 30 seconds thereafter the guillotine door was opened and the time required for the animal to confirm the entrance and to enter into the dark room (the reaction latency) was determined. […]

[5] = test system: Choline acetyltransferase (ChAT); experiment: Activity of Choline acetyltransferase (ChAT) in the striatum after cerebral ischemia; format: in vivo, male SHR's (rat)
Procedure: as §1
After completion of the learning test, the rat was sacrificed by decapitation and the activity of ChAT which had been believed to be involved in the memory function of animals was determined. The brain tissues were homogenized in 0.05% Triton X-100 containing-phosphate buffer solution (pH 7.4) and the resulting supernatant was used as a sample for determining the ChAT activity. The activity of ChAT was determined according to the method of Fonnum (J. Neurochem., 1975,24, p. 407).

[6] = Acute toxicity, oral; conditions: rat, in vivo, rats
Text: The acute toxicity thereof was investigated by orally administering the compounds of Formula (I) to rats and they were confirmed to be highly safe.
Compound A was orally administered to rats to determine the acute toxicity thereof.

**Q.** With COc1ccc(OCCCN(C)CCOc2ccc3c(c2)OCO3)c(C2Sc3ccccc3N(C)C2=O)c1 (single isomer, unassigned; (+)) [Compound A, (+)-3,4-dihydro-2-(5-methoxy-2-(3-(N-methyl-N-[2-[(3,4]propoxy]phenyl]-4-methyl-3-oxo-2H-1,4-benzothiazine fumarate] as the molecule, how does the “effect on survival time under low oxygen supply (in words)” value [1] read?
**A.** The value was “significant effect of extending survival time”.

**Q.** What about the “Survival Time” value ([1]; 60 min before N2, average ± standard error, **: P < 0.01 vs. Control (25.8 ± 0.61)) of the same molecule?
**A.** Its value is 35.7 ± 1.28 s.

**Q.** What about the “Hippocampus E.C. (energy charge)” value ([2]; 10 mg/kg oral) of the same molecule?
**A.** The value was 0.706 ± 0.025.

**Q.** And the “Cerebral Cortex E.C. (energy charge)” value ([2]; 10 mg/kg oral)?
**A.** The value was 0.705 ± 0.0237.

**Q.** What about the “Striatum E.C. (energy charge)” value ([2]; 10 mg/kg oral) of the same molecule?
**A.** Its value is 0.703 ± 0.025.

**Q.** And the “reduction in the E.C. due to the ischemia (in words)” value ([2]; 10 mg/kg oral, cerebrum cortex and hippocampus)?
**A.** The value was “significantly improved”.

**Q.** And the “changes in the ATP and the lactate due to the ischemia (in words)” value ([2]; 25 mg/kg oral)?
**A.** Its value is “significantly inhibited”.

**Q.** What about the “effect on the ratio lactate/pyruvate (in words)” value ([2]; 25 mg/kg oral) of the same molecule?
**A.** Its value is “substantially improved”.

**Q.** What about the ATP ([2]; 25 mg/kg oral, 30 min before 3.5 h ligation, average ± standard error, **: P < 0.01 vs. Pathema Control (10.0 ± 1.03)) of the same molecule?
**A.** Its ATP is 16.9 ± 0.87 n mole/mg Protein.

**Q.** And the Lactate/Pyruvate ([2]; 25 mg/kg oral, 30 min before 3.5 h ligation, average ± standard error, **: P < 0.01 vs. Pathema Control (40.3 ± 6.78))?
**A.** Its Lactate/Pyruvate is 19.1 ± 2.71.

**Q.** What about the Lactate ([2]; 25 mg/kg oral, 30 min before 3.5 h ligation, average ± standard error, **: P < 0.01 vs. Pathema Control (128.6 ± 15.84)) of the same molecule?
**A.** Its Lactate is 62.3 ± 10.20 n mole/mg Protein.

**Q.** What about the “Hippocampus E.C. (energy charge)” value ([2]; 30 mg/kg oral) of the same molecule?
**A.** Its value is 0.762 ± 0.022.

**Q.** And the “Cerebral Cortex E.C. (energy charge)” value ([2]; 30 mg/kg oral)?
**A.** Its value is 0.764 ± 0.0078.

**Q.** What about the “Striatum E.C. (energy charge)” value ([2]; 30 mg/kg oral) of the same molecule?
**A.** Its value is 0.768 ± 0.0063.

**Q.** And the “reduction in the E.C. due to the ischemia (in words)” value ([2]; 30 mg/kg oral, cerebral cortex, hippocampus and striatum)?
**A.** Its value is “completely inhibited”.

**Q.** And the “Swimming Time, 3rd Session” value ([3]; 10 mg/kg oral)?
**A.** Its value is 40.9 ± 11.82 s.

**Q.** What about the “Swimming Time, 2nd Session” value ([3]; 10 mg/kg oral) of the same molecule?
**A.** Its value is 61.4 ± 15.06 s.

**Q.** What about the “Swimming Time, 1st Session” value ([3]; 10 mg/kg oral) of the same molecule?
**A.** Its value is 105.8 ± 16.50 s.

**Q.** And the “Swimming Time, 3rd Session” value ([3]; 30 mg/kg oral)?
**A.** The value was 34.5 ± 3.60 s.

**Q.** And the “Swimming Time, 2nd Session” value ([3]; 30 mg/kg oral)?
**A.** The value was 59.6 ± 9.60 s.

**Q.** What about the “Swimming Time, 1st Session” value ([3]; 30 mg/kg oral) of the same molecule?
**A.** The value was 97.2 ± 18.85 s.

**Q.** And the “time required to reach the base (in words)” value ([3]; vs. pathema control group)?
**A.** Its value is “significantly shorter”.

**Q.** And the “Reaction Latency” value ([4]; 10 mg/kg oral)?
**A.** The value was 271.1 ± 19.21 s.

**Q.** What about the “Reaction Latency” value ([4]; 30 mg/kg oral) of the same molecule?
**A.** The value was 280.8 ± 19.25 s.

**Q.** And the “average reaction latency (in words)” value ([4]; vs. pathema control group)?
**A.** The value was “significantly longer”.

**Q.** What about the “ChAT activity in the striatum” value ([5]; 10 mg/kg oral, *: P < 0.05 vs. Pathema Control (3.43 ± 0.097)) of the same molecule?
**A.** The value was 3.84 ± 0.102 n mol/mg Protein.

**Q.** What about the “ChAT activity in the striatum” value ([5]; 30 mg/kg oral, **: P < 0.01 vs. Pathema Control (3.43 ± 0.097)) of the same molecule?
**A.** The value was 3.94 ± 0.201 n mol/mg Protein.

**Q.** What about the “lowering of the activity of ChAT in the striatum due to the cerebral ischemia (in words)” value ([5]; rat, in vivo) of the same molecule?
**A.** The value was “inhibited”.

**Q.** And the LD50 [6]?
**A.** The LD50 was 293 mg/kg.
